Reference: publication PMC10625584, “Deciphering triterpenoid saponin biosynthesis by leveraging transcriptome response to methyl jasmonate elicitation in Saponaria vaccaria” (Nature Communications, 2023)

System: T1, SvCslG
T1 construct: gene CslG; codon-optimized CDS in pESC-URA; S. cerevisiae INVSc1 microsomal protein
Test: LC-MS assay with yeast microsomal protein, Michaelis-Menten fit
Type: biochemical, Gypsophila vaccaria
Conditions: 20 mM Tris-HCl pH 8.0, 30 mM Mg2+, 30 °C

Km (UDP-GlcA co-substrate) [µM]	Km (quillaic acid co-substrate) [µM]	SMILES
3.13		CC1(C)CC[C@]2(C(=O)O)[C@H](O)C[C@]3(C)C(=CC[C@@H]4[C@@]5(C)CC[C@H](O)[C@@](C)(C=O)[C@@H]5CC[C@]43C)[C@@H]2C1 [QA, quillaic acid]
	65	O=C(O)[C@H]1O[C@H](OP(=O)(O)OP(=O)(O)OC[C@H]2O[C@@H](n3ccc(=O)[nH]c3=O)[C@H](O)[C@@H]2O)[C@H](O)[C@@H](O)[C@@H]1O [UDP-GlcA]
